Where two headings read alike, the source gives them in different places.
Assay: Toxicokinetics after escalating intravenous doses of CKLP1 in beagles
Type: in vivo, beagle dog
Design: AUCTlast/Dose: unit not given here
Conditions: for AUC(0-t) / Cmax / AUCTlast / T1/2 / AUC(0-inf) / Tmax / RAUC / C0 / Tlast / Vd / clearance / half-life / λZ range: dog, in vivo
Experimental: Two beagles (one male and one female) were intravenously injected with escalating doses of CKPL1 (0.05 mg/kg, 0.5 mg/kg, 1.5 mg/kg, 3 mg/kg, and 5 mg/kg) to assess the toxicity of CKLP1. The injection was done through the cephalic vein and CKLP1 was administered in a phosphate buffered saline solution ((0.096% sodium phosphate dibasic, 0.089% sodium dihydrogen orthophosphate monohydrate, 0.83% sodium chloride) pH 6.5±0.1 in sterile water for injection USP). The dosing schedule is shown below in Table 3.
The following parameters and endpoints were evaluated: mortality, clinical observations, body and organ weights, and food consumption. Bioanalytical samples for toxicokinetic parameters (for both CKLP1 and leveromakalim) were collected after each dose level (days 1, 3, 8, 10, and 14) at predose, 1, 3, 6, 8, and 24 hours postdose. Animals were released from the study after completion of the bioanalytical sample collection schedule.
Toxicokinetics (TK) were determined based on the individual exposures for each animal on each sampled study day (days 1, 3, 8, 10, and 14). […] Predose samples had no quantifiable exposure in any animal on any day, with the exception of the female dog on day 10. The predose concentration for the female dog on day 10 was excluded from the TK analysis in order to allow for estimation of the IV C0.

[1] = female dog, IV CKLP1 0.05 mg/kg, study day 1
[2] = female dog, IV CKLP1 0.5 mg/kg, study day 3
[3] = female dog, IV CKLP1 1.5 mg/kg, study day 8
[4] = female dog, IV CKLP1 3 mg/kg, study day 10
[5] = female dog, IV CKLP1 5 mg/kg, study day 14
[6] = male dog, IV CKLP1 0.05 mg/kg, study day 1
[7] = male dog, IV CKLP1 0.5 mg/kg, study day 3
[8] = male dog, IV CKLP1 1.5 mg/kg, study day 8
[9] = male dog, IV CKLP1 3 mg/kg, study day 10
[10] = male dog, IV CKLP1 5 mg/kg, study day 14

## CC1(C)Oc2ccc(C#N)cc2[C@@H](N2CCCC2=O)[C@@H]1O [Levcromakalim, levcromakalim, reference compound]
Both sexes, beagle, iv, 3 mg/kg, read-out: AUCTlast at MTD, sex-combined
  AUC(0-t): 431 ng·h/mL
Both sexes, beagle, iv, 3 mg/kg, read-out: Cmax at MTD, sex-combined
  Cmax: 0.0355 µg/mL
female, beagle, iv, 0.5 mg/kg
  AUCTlast: 81.3 ng·h/mL
  T1/2: 10.3 h
female, beagle, iv, 1.5 mg/kg
  AUC(0-inf): 272 ng·h/mL
  AUCTlast: 241 ng·h/mL
  Cmax: 0.0156 µg/mL
  T1/2: 7.58 h
  Tmax: 3.00 h
female, beagle, iv, 3 mg/kg
  AUC(0-inf): 404 ng·h/mL
  AUCTlast: 386 ng·h/mL
  Cmax: 0.0283 µg/mL
  T1/2: 5.07 h
  Tmax: 6.00 h
female, beagle, iv, 5 mg/kg
  AUCTlast: 1040 ng·h/mL
  T1/2: 7.82 h
male, beagle, iv, 0.05 mg/kg
  AUCTlast: 5.04 ng·h/mL
  T1/2: 9.66 h
male, beagle, iv, 0.5 mg/kg
  AUCTlast: 45.5 ng·h/mL
  T1/2: 6.89 h
male, beagle, iv, 1.5 mg/kg
  AUC(0-inf): 192 ng·h/mL
  AUCTlast: 183 ng·h/mL
  Cmax: 0.018 µg/mL
  T1/2: 5.27 h
  Tmax: 1.00 h
male, beagle, iv, 3 mg/kg
  AUC(0-inf): 518 ng·h/mL
  AUCTlast: 476 ng·h/mL
  Cmax: 0.0427 µg/mL
  T1/2: 6.48 h
  Tmax: 1.00 h
male, beagle, iv, 5 mg/kg
  AUCTlast: 741 ng·h/mL
  T1/2: 7.67 h

## CC1(C)Oc2ccc(C#N)cc2[C@@H](N2CCCC2=O)[C@@H]1OP(=O)(O)O [CKLP1]
IV CKLP1
  gender differences in AUC values following each dose: less than 2 fold
Both sexes, beagle, CKLP1, IV 3 mg/kg, read-out: AUCTlast at MTD, sex-combined
  AUC(0-t): 107000 ng·h/mL
Both sexes, beagle, CKLP1, IV 3 mg/kg, read-out: Cmax at MTD, sex-combined
  Cmax: 16.4 µg/mL
iv, 0.05 mg/kg
  RAUC: LOO
Early time points after IV CKLP1
  plasma concentrations of CKLP1 relative to levcromakalim: more than 300 fold
[1]
  AUCTlast/Dose: 41900
  Cmax/Dose: 7.12e+06 µg/mL
[2]
  AUCTlast/Dose: 41900
  Cmax/Dose: 5.98e+06 µg/mL
[3]
  AUCTlast/Dose: 40800
  Cmax/Dose: 6.03e+06 µg/mL
[4]
  AUCTlast/Dose: 42800
  Cmax/Dose: 6.13e+06 µg/mL
[5]
  AUCTlast/Dose: 62300
  Cmax/Dose: 5.86e+06 µg/mL
female, beagle, iv, 0.05 mg/kg
  AUC(0-inf): 2110 ng·h/mL
  AUC(0-t): 2100 ng·h/mL
  C0: 0.461 µg/mL
  Cmax: 0.356 µg/mL
  RAUC: 1.00
  Tlast: 24.0 h
  Tmax: 1 h
  Vd: 0.112 L/kg
  clearance: 0.395 mL/min/kg
  half-life: 3.26 h
  λZ range: 6 to 24 h
female, beagle, iv, 0.5 mg/kg
  AUC(0-inf): 21200 ng·h/mL
  AUC(0-t): 20900 ng·h/mL
  C0: 3.67 µg/mL
  Cmax: 2.99 µg/mL
  RAUC: 10.0
  Tlast: 24.0 h
  Tmax: 1 h
  Vd: 0.139 L/kg
  clearance: 0.392 mL/min/kg
  half-life: 4.11 h
  λZ range: 6 to 24 h
female, beagle, iv, 1.5 mg/kg
  AUC(0-inf): 62500 ng·h/mL
  AUC(0-t): 61200 ng·h/mL
  C0: 11 µg/mL
  Cmax: 9.05 µg/mL
  RAUC: 29.1
  Tlast: 24.0 h
  Tmax: 1 h
  Vd: 0.162 L/kg
  clearance: 0.4 mL/min/kg
  half-life: 4.68 h
  λZ range: 6 to 24 h
female, beagle, iv, 3 mg/kg
  AUC(0-inf): 129000 ng·h/mL
  AUC(0-t): 128000 ng·h/mL
  C0: 22.7 µg/mL
  Cmax: 18.4 µg/mL
  RAUC: 61.0
  Tlast: 24.0 h
  Tmax: 1 h
  Vd: 0.099 L/kg
  clearance: 0.388 mL/min/kg
  half-life: 2.94 h
  λZ range: 6 to 24 h
female, beagle, iv, 5 mg/kg
  AUC(0-inf): 330000 ng·h/mL
  AUC(0-t): 311000 ng·h/mL
  C0: 32.2 µg/mL
  Cmax: 29.3 µg/mL
  RAUC: 148
  Tlast: 24.0 h
  Tmax: 1 h
  Vd: 0.131 L/kg
  clearance: 0.253 mL/min/kg
  half-life: 5.98 h
  λZ range: 3 to 24 h
[6]
  AUCTlast/Dose: 22400
  Cmax/Dose: 4.9e+06 µg/mL
[7]
  AUCTlast/Dose: 28500
  Cmax/Dose: 5.2e+06 µg/mL
[8]
  AUCTlast/Dose: 28800
  Cmax/Dose: 5.13e+06 µg/mL
[9]
  AUCTlast/Dose: 28400
  Cmax/Dose: 4.8e+06 µg/mL
[10]
  AUCTlast/Dose: 31700
  Cmax/Dose: 4.48e+06 µg/mL
male, beagle, iv, 0.05 mg/kg
  AUC(0-inf): 1230 ng·h/mL
  AUC(0-t): 1120 ng·h/mL
  C0: 0.301 µg/mL
  Cmax: 0.245 µg/mL
  Tlast: 8.00 h
  Tmax: 1 h
  Vd: 0.131 L/kg
  clearance: 0.678 mL/min/kg
  half-life: 2.23 h
  λZ range: 3 to 8 h
male, beagle, iv, 0.5 mg/kg
  AUC(0-inf): 14300 ng·h/mL
  AUC(0-t): 14300 ng·h/mL
  C0: 3.58 µg/mL
  Cmax: 2.6 µg/mL
  RAUC: 12.8
  Tlast: 24.0 h
  Tmax: 1 h
  Vd: 0.143 L/kg
  clearance: 0.583 mL/min/kg
  half-life: 2.84 h
  λZ range: 3 to 24 h
male, beagle, iv, 1.5 mg/kg
  AUC(0-inf): 43300 ng·h/mL
  AUC(0-t): 43200 ng·h/mL
  C0: 10.4 µg/mL
  Cmax: 7.69 µg/mL
  RAUC: 38.6
  Tlast: 24.0 h
  Tmax: 1 h
  Vd: 0.146 L/kg
  clearance: 0.578 mL/min/kg
  half-life: 2.91 h
  λZ range: 1 to 24 h
male, beagle, iv, 3 mg/kg
  AUC(0-inf): 89000 ng·h/mL
  AUC(0-t): 85100 ng·h/mL
  C0: 18.5 µg/mL
  Cmax: 14.4 µg/mL
  RAUC: 76.0
  Tlast: 24.0 h
  Tmax: 1 h
  Vd: 0.303 L/kg
  clearance: 0.562 mL/min/kg
  half-life: 6.22 h
  λZ range: 6 to 24 h
male, beagle, iv, 5 mg/kg
  AUC(0-inf): 160000 ng·h/mL
  AUC(0-t): 159000 ng·h/mL
  C0: 25.9 µg/mL
  Cmax: 22.4 µg/mL
  RAUC: 142
  Tlast: 24.0 h
  Tmax: 1 h
  Vd: 0.156 L/kg
  clearance: 0.522 mL/min/kg
  half-life: 3.47 h
  λZ range: 1 to 24 h

Reference: patent publication US20220387457A1 (Qlaris Bio, Inc., priority 2020, published 2022)
